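48-hour exposure; five concentrations; linearly interpolated endpoints. GI50 marks 50% less growth.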 Activity calls are given as the source filed them. Cut-off read from the data, not from the text of the source: active = GI50 up to about 1.1 µM and inactive = higher.
Columns and labels:
Assay in all cases: NCI anticancer screen, dose series, 48 h
SF-295 = tested on: SF-295
RPMI-8226 = tested on: RPMI-8226
UO-31 = tested on: UO-31
HOP-92 = tested on: HOP-92
UACC-257 = tested on: UACC-257
TK-10 = tested on: TK-10
MDA-MB-435 = tested on: MDA-MB-435
NCI/ADR-RES = tested on: NCI/ADR-RES
SF-268 = tested on: SF-268
OVCAR-4 = tested on: OVCAR-4
OVCAR-5 = tested on: OVCAR-5
NCI-H460 = tested on: NCI-H460
MCF7 = tested on: MCF7
SK-MEL-5 = tested on: SK-MEL-5
NCI-H226 = tested on: NCI-H226
SF-539 = tested on: SF-539
SK-OV-3 = tested on: SK-OV-3
K562 = tested on: K562
SNB-75 = tested on: SNB-75
RXF 393 = tested on: RXF 393

Compound | GI50 (SF-295) | GI50 (RPMI-8226) | GI50 (UO-31) | GI50 (HOP-92) | GI50 (UACC-257) | GI50 (TK-10) | GI50 (MDA-MB-435) | GI50 (NCI/ADR-RES) | GI50 (SF-268) | GI50 (OVCAR-4) | GI50 (OVCAR-5) | GI50 (NCI-H460) | GI50 (MCF7) | GI50 (SK-MEL-5) | GI50 (NCI-H226) | GI50 (SF-539) | GI50 (SK-OV-3) | GI50 (K562) | GI50 (SNB-75) | GI50 (RXF 393)
O=c1[nH]nc(Cc2ccccc2)n1CCO | > 100 µM (inactive) | > 100 µM (inactive) | > 100 µM (inactive) | > 100 µM (inactive) | > 100 µM (inactive) | > 100 µM (inactive) | > 100 µM (inactive) | > 100 µM (inactive) | > 100 µM (inactive) | > 100 µM (inactive) | > 100 µM (inactive) | > 100 µM (inactive) | > 100 µM (inactive) | > 100 µM (inactive) | > 100 µM (inactive) | > 100 µM (inactive) | > 100 µM (inactive) | > 100 µM (inactive) |  | 
NC(=O)c1ncn2c1CNC(=O)C2 | > 100 µM (inactive) |  | > 100 µM (inactive) | > 100 µM (inactive) | > 100 µM (inactive) | > 100 µM (inactive) | > 100 µM (inactive) | > 100 µM (inactive) | > 100 µM (inactive) | > 100 µM (inactive) | > 100 µM (inactive) | > 100 µM (inactive) | > 100 µM (inactive) | > 100 µM (inactive) | > 100 µM (inactive) | > 100 µM (inactive) | > 100 µM (inactive) | > 100 µM (inactive) | > 100 µM (inactive) | > 100 µM (inactive)
Cc1cc2c(cc1Cl)Sc1n[nH]c(=O)n1S2(=O)=O | > 100 µM (inactive) |  | > 100 µM (inactive) | 54.3 µM (inactive) | > 100 µM (inactive) | > 100 µM (inactive) | > 100 µM (inactive) | > 100 µM (inactive) | > 100 µM (inactive) | > 100 µM (inactive) | > 100 µM (inactive) | > 100 µM (inactive) | > 100 µM (inactive) | 35.8 µM (inactive) | > 100 µM (inactive) | > 100 µM (inactive) | > 100 µM (inactive) | > 100 µM (inactive) | > 100 µM (inactive) | 
CC(=O)OCC(=O)OC[C@H](OCc1ccccc1)[C@@H]1[C@H](OC(C)=O)C(=O)N1Cc1ccccc1 | > 100 µM (inactive) | > 100 µM (inactive) | > 100 µM (inactive) | > 100 µM (inactive) | > 100 µM (inactive) | > 100 µM (inactive) | > 100 µM (inactive) | > 100 µM (inactive) | > 100 µM (inactive) | > 100 µM (inactive) | > 100 µM (inactive) |  | > 100 µM (inactive) | > 100 µM (inactive) | > 100 µM (inactive) |  | > 100 µM (inactive) | > 100 µM (inactive) | > 100 µM (inactive) | 
O=C1CC(c2cccc(Cl)c2)Oc2ccccc21 (centres undefined) | 19.4 µM (inactive) | 3.65 µM (inactive) | 13.8 µM (inactive) | 15.2 µM (inactive) | 16.9 µM (inactive) | > 10 µM (inactive) | 17.4 µM (inactive) | 26.2 µM (inactive) | 22.3 µM (inactive) | 22.4 µM (inactive) |  | 18.4 µM (inactive) | 6.4 µM (inactive) | 17.9 µM (inactive) | 21.4 µM (inactive) | 18.2 µM (inactive) | 20.9 µM (inactive) | 2.9 µM (inactive) | 22.6 µM (inactive) | 
CC(C)(C)CC(N)=O | > 100 µM (inactive) | > 10 µM (inactive) | > 100 µM (inactive) | > 100 µM (inactive) | > 100 µM (inactive) | > 100 µM (inactive) | > 100 µM (inactive) | > 100 µM (inactive) | > 100 µM (inactive) | > 100 µM (inactive) | > 100 µM (inactive) | > 100 µM (inactive) | > 100 µM (inactive) | > 100 µM (inactive) | > 100 µM (inactive) | > 100 µM (inactive) | > 100 µM (inactive) | > 100 µM (inactive) | > 100 µM (inactive) | 
Fc1ccc(C(OCCN2CCC3CCC(C2)N3CCCc2ccccc2)c2ccc(F)cc2)cc1 (centres undefined) | 2.77 µM (inactive) | 2.48 µM (inactive) | 5.56 µM (inactive) | 5.45 µM (inactive) | 2.92 µM (inactive) | 4.43 µM (inactive) | 2.61 µM (inactive) | 3.62 µM (inactive) | 6.62 µM (inactive) | 5.28 µM (inactive) | 6.71 µM (inactive) | 2.58 µM (inactive) | 3.74 µM (inactive) | 1.76 µM (inactive) | 3.94 µM (inactive) | 1.35 µM (inactive) | 10.4 µM (inactive) | 2.05 µM (inactive) | 2.4 µM (inactive) | 
Oc1ccccc1/C=N/c1ccc(Oc2ccc(Cl)cc2)c(Cl)c1 | 18.7 µM (inactive) | 21.5 µM (inactive) | 11.1 µM (inactive) | 20 µM (inactive) | 28.6 µM (inactive) | 39.5 µM (inactive) | 28.3 µM (inactive) | 19.3 µM (inactive) | 17.9 µM (inactive) | 22.4 µM (inactive) | 26.1 µM (inactive) | 18.6 µM (inactive) | 41.7 µM (inactive) | 20.8 µM (inactive) | 25.2 µM (inactive) | 20.9 µM (inactive) | 29.8 µM (inactive) |  | 21.1 µM (inactive) | 
CCC(C)C(NC(=O)C(CCCC[N+](=N)N)NC(=O)C(CCCC[N+](=N)N)NC(=O)c1ccc(OC)cc1)C(=O)NC(CCCC[N+](=N)N)C(=O)N1CCCC1C(=O)NC(CCCCN)C(=O)NC(CC(C)C)C(N)=O (centres undefined) | > 100 µM (inactive) | > 100 µM (inactive) | > 100 µM (inactive) |  | > 100 µM (inactive) | > 100 µM (inactive) | > 100 µM (inactive) | > 100 µM (inactive) | > 100 µM (inactive) | > 100 µM (inactive) | > 100 µM (inactive) | > 100 µM (inactive) | > 100 µM (inactive) | > 100 µM (inactive) | > 100 µM (inactive) | > 100 µM (inactive) | > 100 µM (inactive) | > 100 µM (inactive) | > 100 µM (inactive) | > 100 µM (inactive)
CC(C)(Br)C(=O)N1CCN(C(c2ccccc2)c2ccccc2)CC1 | > 100 µM (inactive) |  | 68.7 µM (inactive) | 68.4 µM (inactive) | 41.9 µM (inactive) | > 100 µM (inactive) | > 100 µM (inactive) | > 100 µM (inactive) | 64 µM (inactive) | > 100 µM (inactive) | > 100 µM (inactive) | > 100 µM (inactive) | 24.3 µM (inactive) | 61.4 µM (inactive) | 95.1 µM (inactive) | > 100 µM (inactive) | > 100 µM (inactive) | > 100 µM (inactive) | > 100 µM (inactive) | 31.3 µM (inactive)
Cc1ccc(S(=O)(=O)N/N=C2\CC3C4CCC3C2C4)cc1 (centres undefined) | > 100 µM (inactive) |  | > 100 µM (inactive) | > 100 µM (inactive) | > 100 µM (inactive) | > 100 µM (inactive) | > 100 µM (inactive) | > 100 µM (inactive) | > 100 µM (inactive) | > 100 µM (inactive) | > 100 µM (inactive) | > 100 µM (inactive) | > 100 µM (inactive) | > 100 µM (inactive) | > 100 µM (inactive) | > 100 µM (inactive) | > 100 µM (inactive) | > 100 µM (inactive) | 0.0859 µM (active) | > 100 µM (inactive)
CCOC(=O)N1CCN(Cc2cc(=O)n3cc(C)ccc3n2)CC1 | > 100 µM (inactive) | > 100 µM (inactive) | > 100 µM (inactive) | > 100 µM (inactive) | > 100 µM (inactive) | > 100 µM (inactive) | > 100 µM (inactive) | > 100 µM (inactive) | > 100 µM (inactive) | > 100 µM (inactive) | > 100 µM (inactive) | > 100 µM (inactive) | > 100 µM (inactive) |  | > 100 µM (inactive) | > 100 µM (inactive) | > 100 µM (inactive) | > 100 µM (inactive) | > 100 µM (inactive) | 
COc1ccccc1-n1nnc2c(N)nc(N)nc21 | > 100 µM (inactive) | > 100 µM (inactive) | > 100 µM (inactive) | > 100 µM (inactive) | > 100 µM (inactive) | > 100 µM (inactive) | > 100 µM (inactive) | > 100 µM (inactive) | > 100 µM (inactive) | > 100 µM (inactive) | > 100 µM (inactive) | > 100 µM (inactive) | > 100 µM (inactive) | > 100 µM (inactive) | > 100 µM (inactive) | > 100 µM (inactive) | > 100 µM (inactive) | > 100 µM (inactive) | > 100 µM (inactive) | 
COc1ccc(C2=C(N)c3cc(OC)ccc3C2=O)cc1 | > 100 µM (inactive) | 38.2 µM (inactive) |  | > 100 µM (inactive) | > 100 µM (inactive) |  | > 100 µM (inactive) | 88.7 µM (inactive) | 47.3 µM (inactive) | > 100 µM (inactive) | > 100 µM (inactive) | > 100 µM (inactive) | > 100 µM (inactive) | > 100 µM (inactive) | > 100 µM (inactive) | > 100 µM (inactive) | > 100 µM (inactive) |  | 16.1 µM (inactive) | 
CC(C)Nc1n[nH]c(=O)n1C(C)C | > 100 µM (inactive) | > 100 µM (inactive) | > 100 µM (inactive) | > 100 µM (inactive) | > 100 µM (inactive) | > 100 µM (inactive) | > 100 µM (inactive) | > 100 µM (inactive) | > 100 µM (inactive) |  | > 100 µM (inactive) | > 100 µM (inactive) | > 100 µM (inactive) | > 100 µM (inactive) | 81.5 µM (inactive) | > 100 µM (inactive) | > 100 µM (inactive) | > 100 µM (inactive) | 99.3 µM (inactive) | 

— ChEMBL document CHEMBL1201862, “PubChem BioAssay data set” (2004)
